{"source": "patent US20100204098A1", "about": "(priority 2007, published 2010)", "key": {"[1]": {"tested_on": "L. maculans", "type": "cell-based, Leptosphaeria maculans"}, "[2]": {"tested_on": "F. graminearum", "type": "cell-based, Fusarium graminearum"}, "[3]": {"tested_on": "E. coli", "type": "cell-based, Escherichia coli"}, "[4]": {"tested_on": "F. oxysporum", "type": "cell-based, Fusarium oxysporum"}, "[5]": {"tested_on": "M. luteus", "type": "cell-based, Micrococcus luteus"}, "[6]": {"tested_on": "A. rabiei", "type": "cell-based, Ascochyta rabiei"}}}
{"substance": "Gm-moricinC3: Moricin-like peptide from Galleria mellonella, SEQ ID NO:5; purified from hemolymph and synthesised by Auspep (KVPIGAIKKGGKIIKKGLGVIGAAGTAHEVYSHVKNRQ; listed as Galleria mellonella)", "values": [{"measurement": "concentration level at which activity against spores of L. maculans was shown", "setting": "[1]", "result": 100, "unit": "µM"}, {"measurement": "activity against F. graminearum of fractions purified from hemolymph", "setting": "[2]", "result": "activity"}, {"measurement": "concentration level at which activity against spores of F. graminearum was shown", "setting": "[2]", "result": 10, "unit": "µM"}, {"measurement": "concentration at which activity against E. coli was shown", "setting": "[3]", "result": 100, "unit": "µM"}, {"measurement": "concentration level at which activity against spores of F. oxysporum was shown", "setting": "[4]", "result": 100, "unit": "µM"}, {"measurement": "concentration at which activity against M. luteus was shown", "setting": "[5]", "result": 100, "unit": "µM"}]}
{"substance": "Gm-moricinC4/C5: Mature Gm-moricinC4 and Gm-moricinC5 from Galleria mellonella, identical mature amino acid sequences (SEQ ID NO:1 and 3), synthesised by Auspep (KVPVGAIKKGGKAIKTGLGVVGAAGTAHEVYSHIRNRH; listed as Galleria mellonella)", "values": [{"measurement": "concentration level at which activity against spores of L. maculans was shown", "setting": "[1]", "result": 100, "unit": "µM"}, {"measurement": "concentration level at which activity against spores of F. graminearum was shown", "setting": "[2]", "result": 100, "unit": "µM"}, {"measurement": "concentration at which activity against E. coli was shown", "setting": "[3]", "result": 100, "unit": "µM"}, {"measurement": "activity against spores of F. oxysporum", "setting": "[4]", "result": "no activity"}, {"measurement": "activity against M. luteus", "setting": "[5]", "result": "no activity"}]}
{"substance": "Gm-moricinD: Moricin-like antifungal peptide from Galleria mellonella, SEQ ID NO:7; purified from hemolymph and synthesised by Auspep (KGIGSALKKGGKIIKGGLGALGAIGTGQQVYEHVQNRQ; listed as Galleria mellonella)", "values": [{"measurement": "concentration level at which activity against spores of L. maculans was shown", "setting": "[1]", "result": 100, "unit": "µM"}, {"measurement": "activity against F. graminearum of fractions purified from hemolymph", "setting": "[2]", "result": "activity"}, {"measurement": "concentration level at which activity against spores of F. graminearum was shown", "setting": "[2]", "result": 10, "unit": "µM"}, {"measurement": "activity against E. coli", "setting": "[3]", "result": "no activity"}, {"measurement": "concentration level at which activity against spores of A. rabiei was shown", "setting": "[6]", "result": 100, "unit": "µM"}, {"measurement": "concentration level at which activity against spores of F. oxysporum was shown", "setting": "[4]", "result": 100, "unit": "µM"}, {"measurement": "activity against M. luteus", "setting": "[5]", "result": "no activity"}]}
